Source: patent US20220017833A1, “Methods and Compositions for Scavenging Sulfides from Hydrocarbon Fluids and Aqueous Streams” (Nexgen Oilfield Chemicals, LLC, priority 2019, published 2022)

Experiments:
Type in all cases: physicochemical
[1] = Spent Water Flowability Test; design: key: Pass: A homogeneous, single-phase solution or thin layer of readily flowable non-sticking liquid constitutes a pass.; Fail: Any solids or thick, sticky insoluble liquid is a fail.; PASS: A homogeneous, single-phase solution or thin layer of readily flowable non-sticking liquid constitutes a pass.; FAIL: Any solids or thick, sticky insoluble liquid is a fail; conditions: Table 5; glyoxy alkyl diaminol in water and MeOH only
Description: In field applications, spent scavenger is disposed of through a wastewater system. Spent scavenger might be soluble in the scavenger system but insoluble in wastewater. If it cannot be disposed of, it is not suitable for use. To ensure wastewater processing runs trouble free, spent scavenger passing the Spent Solids Fouling Test is then added to 39 times its weight in water (2.5%) and examined again for insoluble solids and viscous, sticky liquids that might foul the wastewater system. Any solids or thick, sticky insoluble liquid is a fail. A homogeneous, single-phase solution or thin layer of readily flowable non-sticking liquid constitutes a pass.

[2] = Spent Solids Fouling Test; conditions: Table 5, glyoxy alkyl diaminol in water and MeOH only
Excerpt: In every application, the active component of the scavenger system reacts with H2S to from a reaction product. Once all the active scavenger has been so reacted, it is spent. […] Thioethers are much less water soluble than amines, so the reaction products are often insoluble. Thioether bridges also connect spent scavenger molecules to each other, thereby forming insoluble polymeric solids. These solids accumulate and foul (interfere with the function) of the vessel, line, or equipment to which the scavenger is being fed. […] If any solids or insoluble viscous liquids are observed poorly dispersed in the spent scavenger system or clinging to the sides of the vessel, the scavenging system employed in that Long Reaction Time Capacity Test fails this test. A homogeneous, single-phase solution or thin layer of readily flowable non-sticking liquid constitutes a pass.

Hot Spray Fouling Test = conditions: Table 5; glyoxy alkyl diaminol in water and MeOH only
Excerpt: In many gas applications, the scavenger must by sprayed into a hot gas stream. This can create insoluble materials (“solids”) as the scavenger system evaporates and/or decomposes. These solids accumulate and foul (interfere with the function) of the vessel, line, or equipment to which the scavenger is being fed. This precludes the scavenger being used in that application. Referring now to FIG. 2, a spray test system 200 is utilized to for the Hot Spray Fouling Test. In one embodiment, an injection atomizer apparatus 22 is employed, wherein the scavenger formulation (not separately labeled) is sprayed onto a sheet 26 through an atomizing nozzle 24, like that used to introduce the scavenger into a gas line, tank, or vessel. The material is first placed in a double boiler (not shown) and brought to 180° F. The heated liquid is then placed in the injection atomizer apparatus 22 and sprayed horizontally onto an aluminum sheet 26 twelve inches away. The chemical drains gravitationally down the sheet where it is funneled into a beaker 28 for collection. If solids are observed on the sheet 26 or in the draining or collected fluid, the sample fails. If no solids are observed, it passes the test.

[3] = Storage Capacity Loss Test; conditions: for BT Capacity Loss / FD Capacity Loss: 72-24 Hrs storage at room temperature; for Min to BT / Min to FD: Short Reaction Time Capacity Test, diaminol in water + 10.00 g MeOH, 20 g test
Description: This test compares the scavenging capacity after 24 hours of storage of the scavenger system at room temperature to that after 72 hours of storage thereof at room temperature. In one embodiment, a sample of the scavenger system is made fresh and split in two portions. The Short Reaction Time Capacity Test is run on one portion after standing 24 hours on the bench at room temperature. Then the same test is run on the other portion after standing 72 hours on the bench at room temperature. The two measured capacities are compared to see if the product degrades in storage. Importantly, some scavengers lose activity with time due to secondary reactions and re-equilibrations that degrade their active form.
Table 5 compares different alkyl substituents on glyoxy alkyl diaminols. These compounds were prepared by reacting one mole of glyoxal, as a 40% aqueous solution, with 2.1 moles of various primary amines in a sufficient amount of MeOH to keep the product from separating into an aqueous layer and a non-aqueous layer. For each amine substituent: methyl (Me), ethyl (Et), normal-propyl (n-Pr), iso-propyl (i-Pr), and iso-propanol [1-propan-2-ol] (i-PrOH), the presence or absence of alpha branching on that substituent is noted. The weight ratios of the diaminols, water, and MeOH, are listed, along with their equivalent weights (Eq. Wt.) and the total equivalents per 20 g test (Eq/test). To measure the product stability, the Storage Capacity Loss between 24 and 72 hours was determined. As described earlier, a fresh sample of the scavenger system is split in two portions. The Short Reaction Time Capacity Test is run on one portion after standing 24 hours on the bench at room temperature. Then the same test is run on the other portion after standing 72 hours on the bench at room temperature. Both the 24-hr and 72-hr capacities (Min to FD and BT) and molar capacities (Min/Eq FD and BT) are listed in the table with the percent capacity loss for each substituent calculated below it. […] The others lost 34% to 77% of their scavenging capacity in 48 hours (72-24), presumably due to secondary reactions and re-equilibrations that degraded their active form. In this system employing only methanol, all of these compositions failed both the Hot Spray Fouling Test and the Spent Water Flowability Test. Two of them, the iso-propylamine [propan-2-amine] and the iso-propanolamine [1-aminopropan-2-ol] passed the Spent Solids Fouling Test.

[4] = Solution Homogeneity Test; conditions: Table 5; glyoxy alkyl diaminol in water and MeOH only
Excerpt: In one aspect, as two-phase reaction products are problematic, scavenger system homogeneity is desired. The two phases could be emulsified or otherwise finely dispersed, but in practice, even fine, seemingly stable dispersions eventually separate or stratify in extended storage or critical use and are not robust enough for practical use. They are not allowed, for example, to be fed through capillaries for fear of plugging them. In this pass/fail test, a sample is held up for visual inspection in a backlit clear vial. A clear, single-phase, homogeneous solution is a pass. Anything else is a fail.

[5] = Sample Age 24 Hrs at room temperature
[6] = Sample Age 72 Hrs at room temperature

SMILES | Spent Water Flowability [1] | Spent Solids Fouling [2] | Spent Solids Fouling ([2]; listed as iso-propanolamine) | Hot Spray Fouling (Hot Spray Fouling Test) | BT Capacity Loss [3] [%] | FD Capacity Loss [3] [%] | Min/Eq BT ([3]; Sample Age 24 Hrs) [Min/Eq] | Min/Eq FD ([3]; Sample Age 24 Hrs) [Min/Eq] | Min to BT [3, 5] [min] | Min to FD [3, 5] [min] | Min/Eq BT ([3]; Sample Age 72 Hrs) [Min/Eq] | Min/Eq FD ([3]; Sample Age 72 Hrs) [Min/Eq] | Min to BT [3, 6] [min] | Min to FD [3, 6] [min] | Solution Homogeneity [4]
CC(O)CNC(O)C(O)NCC(C)O (stereo not drawn) | Fail | Pass | passed | Fail | 67 | 54 | 444 | 192 | 30 | 13 | 148 | 89 | 10 | 6 | Pass
CNC(O)C(O)NC (stereo not drawn) [Me] | Fail | Fail |  | Fail | 34 | 47 | 301 | 156 | 29 | 15 | 197 | 83 | 19 | 8 | Pass
CCCNC(O)C(O)NCCC (stereo not drawn) [n-Pr] | Fail | Fail |  | Fail | 55 | 77 | 501 | 409 | 38 | 31 | 224 | 92 | 17 | 7 | Pass
CCNC(O)C(O)NCC (stereo not drawn) [Et] | Fail | Fail |  | Fail | 46 | 71 | 436 | 365 | 37 | 31 | 236 | 106 | 20 | 9 | Pass
